In patent US5446057A, “Substituted tetrahydropyridine and piperidine carboxylic acids as muscarinic antagonists” (priority 1993, dated 1995):

Legend:
M2 receptors = settings: literature; cited from earlier work
m1 receptor = biological target: T1, m1 receptor (Homo sapiens, UniProt P11229); assay: [3H]-NMS receptor binding using membranes from CHO cells expressing cloned human muscarinic receptor m1; settings: [3H]-NMS 100 pM, pH 7.4, 120 minutes at 25° C.
T1 construct: expressed in transfected cells; host or cells: CHO cells (membranes)
T1 sequence (P11229 1-460): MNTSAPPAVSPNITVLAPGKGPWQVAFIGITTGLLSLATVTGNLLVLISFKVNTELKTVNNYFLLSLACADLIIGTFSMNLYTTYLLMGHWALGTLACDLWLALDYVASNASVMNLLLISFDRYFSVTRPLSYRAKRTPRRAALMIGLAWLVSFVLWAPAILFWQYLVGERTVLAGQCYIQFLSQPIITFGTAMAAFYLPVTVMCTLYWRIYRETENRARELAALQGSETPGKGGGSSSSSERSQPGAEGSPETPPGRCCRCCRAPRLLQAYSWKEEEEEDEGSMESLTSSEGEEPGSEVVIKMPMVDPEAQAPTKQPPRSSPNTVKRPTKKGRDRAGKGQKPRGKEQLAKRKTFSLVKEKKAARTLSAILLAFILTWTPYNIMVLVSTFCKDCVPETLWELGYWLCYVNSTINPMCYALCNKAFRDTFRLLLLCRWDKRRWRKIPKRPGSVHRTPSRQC
Method: (§1) [^3 H]-N-methylscopolamine ([^3 H]-NMS) Receptor Binding Using Membranes From Chinese Hamster Ovary (CHO) Cells Selectively Expressing One of the Five Cloned Human Muscarinic Receptors
(§2) Following membrane harvest and storage at -80° C., aliquots of membranes (approximately 10-40 μg protein) are added to 2 mL of 10 mM sodium potassium phosphate buffer, pH 7.4, containing 100 pM [^3 H]-NMS; (78.9 Ci/mmol) and the appropriate test compound. Nonspecific binding is defined as that unaffected by the inclusion of 1 μM atropine. The reaction is initiated by the addition of the membranes and allowed to proceed for 120 minutes at 25° C. with shaking. Termination of the incubation is achieved by rapid vacuum filtration through GF/B Whatman filters using a Brandel Cell Harvester with the filters being washed three times with 5 mL ice-chilled buffer. 10 mL of Beckman Ready Gel scintillation cocktail are added to the filters in vials and the samples are allowed to set overnight before vortexing and counting in a Beckman 800 scintillation counter. IC50 values are calculated using a logit equation.

m2 receptor = biological target: T2, m2 receptor (Homo sapiens, UniProt P08172); assay: [3H]-NMS receptor binding using membranes from CHO cells expressing cloned human muscarinic receptor m2; settings: [3H]-NMS 100 pM, pH 7.4, 120 minutes at 25° C.
T2 construct: expressed in transfected cells; host or cells: CHO cells (membranes)
T2 sequence (P08172 1-466): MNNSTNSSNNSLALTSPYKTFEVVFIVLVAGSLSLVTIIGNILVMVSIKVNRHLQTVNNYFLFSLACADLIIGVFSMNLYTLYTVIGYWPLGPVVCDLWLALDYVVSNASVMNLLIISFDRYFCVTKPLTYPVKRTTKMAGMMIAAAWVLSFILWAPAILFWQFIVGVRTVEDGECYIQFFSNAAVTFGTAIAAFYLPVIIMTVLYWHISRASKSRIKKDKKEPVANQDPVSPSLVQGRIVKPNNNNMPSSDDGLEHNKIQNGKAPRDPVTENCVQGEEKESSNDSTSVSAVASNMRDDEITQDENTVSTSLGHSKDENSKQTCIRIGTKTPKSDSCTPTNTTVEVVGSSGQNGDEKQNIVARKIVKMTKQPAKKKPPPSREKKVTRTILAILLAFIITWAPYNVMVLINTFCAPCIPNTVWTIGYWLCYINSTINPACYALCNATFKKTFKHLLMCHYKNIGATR
Method: as §1, §2

m3 receptor = m3 receptor (Homo sapiens, UniProt P20309); assay: [3H]-NMS receptor binding using membranes from CHO cells expressing cloned human muscarinic receptor m3; settings: [3H]-NMS 100 pM, pH 7.4, 120 minutes at 25° C.
Method: as §1, §2

m4 receptor = biological target: T3, m4 receptor (Homo sapiens, UniProt P08173); assay: [3H]-NMS receptor binding using membranes from CHO cells expressing cloned human muscarinic receptor m4; settings: [3H]-NMS 100 pM, pH 7.4, 120 minutes at 25° C.
T3 construct: expressed in transfected cells; host or cells: CHO cells (membranes)
T3 sequence (P08173 1-479): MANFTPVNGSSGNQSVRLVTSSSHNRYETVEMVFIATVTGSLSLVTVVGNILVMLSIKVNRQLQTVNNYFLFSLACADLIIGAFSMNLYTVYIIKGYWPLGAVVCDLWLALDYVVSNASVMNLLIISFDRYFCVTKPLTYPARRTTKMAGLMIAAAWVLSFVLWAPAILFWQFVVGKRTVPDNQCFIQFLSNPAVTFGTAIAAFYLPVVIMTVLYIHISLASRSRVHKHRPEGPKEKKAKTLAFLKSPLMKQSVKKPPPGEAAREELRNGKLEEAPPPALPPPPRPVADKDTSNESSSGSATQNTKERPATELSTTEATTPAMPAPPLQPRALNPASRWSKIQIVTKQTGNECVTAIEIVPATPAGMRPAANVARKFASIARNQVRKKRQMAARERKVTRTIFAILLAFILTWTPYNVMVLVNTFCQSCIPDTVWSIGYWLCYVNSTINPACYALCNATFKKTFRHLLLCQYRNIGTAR
Method: as §1, §2

m5 receptor = biological target: T4, m5 receptor (Homo sapiens, UniProt P08912); assay: [3H]-NMS receptor binding using membranes from CHO cells expressing cloned human muscarinic receptor m5; settings: [3H]-NMS 100 pM, pH 7.4, 120 minutes at 25° C.
T4 construct: expressed in transfected cells; host or cells: CHO cells (membranes)
T4 sequence (P08912 1-532): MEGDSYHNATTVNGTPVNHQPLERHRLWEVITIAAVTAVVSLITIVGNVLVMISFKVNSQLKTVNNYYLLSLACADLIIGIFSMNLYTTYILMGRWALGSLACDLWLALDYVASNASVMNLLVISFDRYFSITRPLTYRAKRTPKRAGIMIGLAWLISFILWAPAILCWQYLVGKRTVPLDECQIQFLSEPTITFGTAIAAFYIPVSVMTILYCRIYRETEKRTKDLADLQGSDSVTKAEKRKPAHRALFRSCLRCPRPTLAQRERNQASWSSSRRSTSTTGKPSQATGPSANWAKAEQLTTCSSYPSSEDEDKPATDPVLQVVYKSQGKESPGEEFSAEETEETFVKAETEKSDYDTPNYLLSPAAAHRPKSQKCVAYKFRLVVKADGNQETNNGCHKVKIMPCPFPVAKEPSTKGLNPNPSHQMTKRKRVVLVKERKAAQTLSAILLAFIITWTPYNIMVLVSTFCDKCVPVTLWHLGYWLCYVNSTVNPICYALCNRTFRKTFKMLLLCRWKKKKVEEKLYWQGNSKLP
Method: as §1, §2

Hm1 = biological target: T5, Hm1 (Homo sapiens, UniProt P11229); type: cell-based
T5 construct: expressed in transfected cells; host or cells: CHO Hm1 cells
T5 sequence (P11229 1-460): T1 sequence (P11229 1-460)
Method: CHO Hm1, Hm3, or Hm5 cells are grown at 37° C. with 5% CO2 in Dulbecco's modified Eagle's medium (DMEM) supplemented with 10% fetal bovine serum and 1% nonessential amino acids. […] After 48 hours, the medium is aspirated and the cells are washed 2 times with 1 mL MEM containing 10 mM LiCl. 0.5 mLMEM/LiCl then is added to each well and allowed to incubate at 37° C. for at least 15 minutes. […] For antagonist experiments, the appropriate antagonist is added simultaneously with carbachol (3 μM for m1, 5 μM for m3, and 3 μM for m5). After waiting at least 15 minutes, the TCA extract is applied to Dowex-formate columns (Biorad AG 1-X8 resin, formate form, 100-200 mesh). The wells are rinsed with 0.5 mL distilled H2 O and also applied to the columns. The columns are washed 4 times with 3 mL 5 mMmyo-inositol and then total [^3 H]-inositol phosphates are eluted into vials with two 2 mL washes of 1 mM ammonium formate containing 0.1M formic acid. Beckman Ready Gel scintillation cocktail (10 mL) is added and the samples counted in a Beckman 2800 scintillation counter. The efficacy of agonists is estimated from the maximal effect of the compounds on PI turnover (expressed as a percent of the stimulation produced by carbachol (1 mM)). EC50 and IC50 values are also calculated for both agonists and antagonists, respectively.

M3 receptors = settings: literature; cited from earlier work
[1] = urinary incontinence; cited from earlier work
[2] = system: patients with effort myocardial ischemia; settings: cited from earlier work

Sequence of m3 receptor (P20309 whole entry): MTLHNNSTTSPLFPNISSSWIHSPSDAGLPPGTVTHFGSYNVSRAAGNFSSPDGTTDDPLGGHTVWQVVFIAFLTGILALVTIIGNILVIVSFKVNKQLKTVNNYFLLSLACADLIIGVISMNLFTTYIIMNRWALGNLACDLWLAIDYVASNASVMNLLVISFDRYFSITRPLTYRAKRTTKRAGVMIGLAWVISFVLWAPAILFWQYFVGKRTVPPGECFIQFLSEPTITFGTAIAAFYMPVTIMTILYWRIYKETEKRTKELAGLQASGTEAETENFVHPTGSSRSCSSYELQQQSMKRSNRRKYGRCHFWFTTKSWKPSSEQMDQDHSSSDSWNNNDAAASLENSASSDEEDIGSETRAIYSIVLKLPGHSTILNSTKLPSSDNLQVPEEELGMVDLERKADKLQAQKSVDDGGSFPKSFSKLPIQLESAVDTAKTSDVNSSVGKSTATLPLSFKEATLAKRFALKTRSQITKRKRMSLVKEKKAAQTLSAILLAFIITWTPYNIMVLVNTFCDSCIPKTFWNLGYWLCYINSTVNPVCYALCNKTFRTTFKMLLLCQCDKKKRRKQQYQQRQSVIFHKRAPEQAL

Row | Structure (SMILES) | IC50 (m1 receptor) [µM] | IC50 (m2 receptor) [µM] | IC50 (m3 receptor) [µM] | IC50 (m4 receptor) [µM] | IC50 (m5 receptor) [µM] | further results
1 | CCN(CC)CC1CCCCN1CC(=O)N1c2ccccc2C(=O)Nc2cccnc21 (stereo not shown) [AF-DX 116] | – | – | – | – | – | affinity for M2 receptors (M2 receptors): high affinity
2 | CCN1CCC(c2ccccc2)=C(C(=O)N(C)C)C1 [C, 1-Ethyl-1,2,5,6-tetrahydro-4-phenyl-N,N-dimethyl-3-pyridinecarboxamide] | 5.01 | 12.3 | 8.99 | 13.5 | 6.08 | muscarinic antagonism (in words) (Hm1): potent antagonists
3 | CCN1CCC(c2ccccc2)=C(C(=O)NC)C1 [D, 1-Ethyl-1,2,5,6-tetrahydro-4-phenyl-N-methyl-3-pyridinecarboxamide] | 21.1 | 34.8 | 38.7 | 73.1 | 49.1 | –
4 | COC(=O)C1=C(C)CCN(C)C1 [E, 1,4-Dimethyl-1,2,5,6-tetrahydro-3-pyridinecarboxylic acid, methyl ester] | 61 | 10.4 | 68 | > 50 | 73.8 | –
5 | CCN1CCC(c2ccccc2)=C(C(=O)OC(C)C)C1 [Example 4, 1-Ethyl-1,2,5,6-tetrahydro-4-phenyl-3-pyridinecarboxylic acid, 1-methylethyl ester] | – | 0.347 | – | 0.643 | – | –
6 | C[N+]1(C)CCC(OC(=O)C(c2ccccc2)c2ccccc2)CC1 [Example 4-DAMP, 4-diphenylacetoxy-N-methylpiperidine methobromide] | – | – | – | – | – | affinity for M3 receptors (M3 receptors): high affinity
7 | CCN1CC=C(c2ccccc2)C(C(=O)OCCc2ccc(Cl)cc2)C1 (stereo not shown) [Example 16, 1-Ethyl-1,2,3,6-tetrahydro-4-phenyl-3-pyridinecarboxylic acid, 2-(4-chlorophenyl)ethyl ester] | – | 1.29 | – | 1.85 | – | –
8 | CCCCC1=C(C(=O)OC)CN(CCC)CC1 [F, 1-Propyl-1,2,5,6-tetrahydro-4-butyl-3-pyridinecarboxylic acid, methyl ester] | 17.5 | 5.34 | 14.9 | 50.7 | 41.2 | –
9 | O[Si](CCCN1CCCCC1)(c1ccccc1)C1CCCCC1 (stereo not shown) [hexahydrosiladifenidol] | – | – | – | – | – | affinity for M3 receptors (M3 receptors): high affinity
10 | COc1ccccc1CNCCCCCCNCCCCCCCCNCCCCCCNCc1ccccc1OC [methoctramine] | – | – | – | – | – | affinity for M2 receptors (M2 receptors): high affinity
11 | CCN(CC)CC#CCOC(=O)C(O)(c1ccccc1)C1CCCCC1 (stereo not shown) [oxybutynin] | – | – | – | – | – | side effects limiting use [1]: mydriasis, dry mouth
12 | CN1CCN(CC(=O)N2c3ccccc3C(=O)Nc3cccnc32)CC1 [pirenzepine] | – | – | – | – | – | exercise tolerance [2]: improve exercise tolerance
